The values below come from patent US8895617B1, “Composition and method for treating neurological disease” (Adamas Pharmaceuticals, Inc., priority 2004, dated 2014).

Data set [1] can be described thus: Estimated amantadine concentration in squirrel monkeys. In kind it is in vivo, squirrel monkey. Particulars: amantadine raised from 1 mg/kg to 45 mg/kg. As to the method:
Briefly, squirrel monkeys (N=4) were lesioned with MPTP according to the protocol of Di Monte et al. (Mov. Disord. 15: 459-66 (2000)). […] Levodopa treatment at approximately 15 mg/kg (with 1.5 mg/kg carbidopa) mg/kg b.i.d. commenced a baseline UPDRS and dyskinesia measurement was established. […] We hypothesize that this translates into a potential 40% reduction in levodopa required to maintain UPDRS.

The nature of data set [2]: In vitro release profile, USP type 2 (paddle) dissolution. In kind it is physicochemical. Conditions: USP II Paddle, 0.1N HCl. The procedure:
Compositions containing an aminoadamantane and levodopa/carbidopa are analyzed for release of the aminoadamantane and levodopa/carbidopa, according to the USP type 2 apparatus at a speed of 50 rpm. The dissolution media used include water, 0.1N HCl, or 0.1N HCl adjusted to pH 6.8 at 2 hours with phosphate buffer. The dissolution medium is equilibrated to 37±0.5° C.
The USP reference assay method for amantadine is used to measure the fraction of memantine released from the compositions prepared herein. Briefly, 0.6 mL sample (from the dissolution apparatus at a given time point) is placed into a 15 mL culture tube. 1.6 mL 0.1% Bromocresol Purple (in acetic acid) is added and vortexed for five seconds. The mixture is allowed to stand for approximately five minutes. 3 mL Chloroform is added and vortexed for five seconds. The solution is next centrifuged (speed […]) for five minutes. The top layer is removed with a disposable pipette. A sample is drawn into 1 cm flow cell and the absorbance is measured at 408 nm at 37° C. and compared against a standard curve prepared with known quantities of the same aminoadamantane. The quantity of determined is plotted against the dissolution time for the sample.
The USP reference assay method for levodopa is used to measure the fraction of levodopa released from the compositions prepared herein. Briefly, 0.5 ml samples from the dissolution apparatus removed at various times are assayed by liquid chromatography. The chromatograph is equipped with a 280 nm detector and a 3.9 mm×30 cm column containing packing Ll. The mobile phase is 0.09 N sodium phosphate, 1 mM sodium 1-decanesulfonate, pH 2.8. With the flow rate adjusted to about 2 mL per minute, the levodopa elutes in about 4 minutes and carbidopa elutes in about 11 minutes. From the saved dissolution samples, a 0.02 ml aliquot is injected into the chromatograph and the absorbance is measure and compared to standard to determine concentration & quantity. The quantity dissolved is then plotted against the dissolution time for the sample.
The cumulative fraction is the amount of drug substance released from the formulation matrix to the serum or gut environment (e.g., U.S. Pat. No. 4,839,177 or 5,326,570) or as measured with a USP II Paddle system using 0.1N HCl as the dissolution medium.

For data set [3] the following is noted: humans; cited from earlier work.

Molecules are shown by their SMILES. “Also recorded” adds a separate entry of the source.

`NC12CC3CC(CC(C3)C1)C2` [Amantadine, 1-amino-adamantane]: in data set [1], the estimated concentration is given as ~3 μm. The cum. fraction released came out at 0.00 in data set [2] (Time 0, amantadine and levodopa/carbidopa combination); 0.10 in data set [2] (Time 0.5); 0.20 in data set [2] (Time 1.0); 0.35 in data set [2] (Time 2.0); 0.60 in data set [2] (Time 4.0); 0.90 in data set [2] (Time 8.0). Further, the cum. fraction released in data set [2] (Time 12.0) stood at 0.98.

Take `CC12CC3CC(C)(C1)CC(N)(C3)C2` [Memantine, 1-amino-3,5-dimethyladamantane]: the “Dose Dependent Toxicity” value in data set [3] was “Dose escalation; also recorded: hallucination”.

In the case of `CC(N)C12CC3CC(CC(C3)C1)C2` (stereo not shown) [Rimantadine, 1-(1-aminoethyl)adamantane], the “Dose Dependent Toxicity” value in data set [3] is listed as “Insomnia”.
